Measurements: patent US20040204457A1, “Use of (+)-alpha-(2,3-dimethoxyphenyl)-1-[2-(4-fluorophenyl)ethyl]-4- piperidinemethanol or its prodrug in the treatment of symptoms of dementia and dopamine induced psychosis” (Aventis Pharmaceuticals Inc., priority 2000, published 2004)

Assays:
[1] = system: scopolamine-stimulated locomotion; assay: scopolamine-stimulated locomotion in rats (60 min activity counts); format: in vivo, rat; details: for antagonism of scopolamine-stimulated locomotion: 0.03-1 mg/kg
Description: Cholinergic deficiency states include various neurodegenerative diseases such as Alzheimer's disease, Dementia with Lewy Bodies, Charles Bonnet Syndrome, delirium and Parkinson's disease. Experimental Procedure. All procedures were conducted in normal white light conditions. Rats (1 per box) were first acclimated to test boxes (45×22×20 cm; clear polycarbonate with a plastic top) for 90 minutes. […] Testing commenced immediately. […] Each interruption of a photoelectric light beam was recorded as a single activity count by a microprocessor-based control system. Testing took place between 10:00 a.m. and 5:00 p.m., with all groups counterbalanced for time of testing. The experimenter was blind to treatment group during the experiment.

[2] = system: social memory; assay: social memory test in mice (duration of social interaction, baseline vs retest); format: in vivo; details: 0.1 and 1 mg/kg
Description: Male CD-1 mice (30-35 grams) were first acclimated to the test room for approximately 1 hour. […] For the baseline test, unfamiliar pairs of mice were placed into a test chamber (plexiglas mouse cage with sawdust bedding). The duration of social interaction of the two mice (sniffing, anogenital exploration, nosing, grooming, licking, pawing, playing copulatory attempts) was observed and recorded for a period of five minutes and was registered cumulatively as total seconds of contact. Twenty-four hours later, the animals were given a retest without any drug treatment. At the retest, the now familiar partners from the baseline test were placed into the test chamber for a second confrontation and the duration of social interaction was again measured. Social memory was defined as a significant decrease in duration of social contact from baseline to retest. Testing took place in normal white light conditions between the hours of 8:30 am and 3:00 pm. The experimenter was blind to the treatment group until the completion of the experiment. The results represent combined data (n=36 per group total) from two studies. Data were analyzed using the Mann-Whitney test.

| Structure (SMILES) | antagonism of scopolamine-stimulated locomotion [1] | Group mean of 60 min activity count totals ([1]; M100907 0.03 + SCOP 0.75, intraperitoneal, n=6) | Group mean of 60 min activity count totals ([1]; M100907 0.1 + SCOP 0.75, intraperitoneal, n=6) | Group mean of 60 min activity count totals ([1]; M100907 0.3 + SCOP 0.75, intraperitoneal, n=6) | Group mean of 60 min activity count totals ([1]; M100907 1 + SCOP 0.75, intraperitoneal, n=6) | effect on social memory [2] | Group mean of 60 min activity count totals ([1]; risperidone 0.03 + SCOP 0.75, intraperitoneal, n=8) | Group mean of 60 min activity count totals ([1]; risperidone 0.1 + SCOP 0.75, intraperitoneal, n=8) | Group mean of 60 min activity count totals ([1]; risperidone 0.3 + SCOP 0.75, intraperitoneal, n=8) | Group mean of 60 min activity count totals ([1]; risperidone 1 + SCOP 0.75, intraperitoneal, n=8) | activity level relative to baseline (vehicle) level ([1]; risperidone at the two higher doses + scopolamine) |
| --- | --- | --- | --- | --- | --- | --- | --- | --- | --- | --- | --- |
| COc1cccc([C@H](O)C2CCN(CCc3ccc(F)cc3)CC2)c1OC [M100907, (+)-isomer of α-(2,3-dimethoxyphenyl)-1-[2-(4-fluorophenyl)ethyl]-4-piperidinemethanol] | significantly antagonized | 3181 | 2378 | 2087 | 2231 | significantly enhanced | – | – | – | – | – |
| Cc1nc2n(c(=O)c1CCN1CCC(c3noc4cc(F)ccc34)CC1)CCCC2 [risperidone] | significantly antagonized | – | – | – | – | – | 4615 | 4037 | 1795 | 772 | reduced activity below baseline level |
